pIC50: −log10 of the molar value.
What follows are compounds tested on HIV (assay: MT4 assay: antiviral HIV activity (cell protection, cell titer glo readout at 96 hours)). Settings: Human immunodeficiency virus 1, MT4, 96 h, MT4 cells, cell titer glo readout at 96 hours, 10 point dose response; read-out: HIV MT4 Assay IC50.
Assay type: cell-based
In short: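 MT-4 cells infected with HIV, with inhibition readout by CellTiter-Glo luminescence at 96 h relative to no-compound control. Cytotoxicity measured in parallel under the same conditions. IC50 from a 10-point, 3-4-fold dilution series spanning >1000-fold, fitted with a four-parameter logistic equation.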
`Cc1nc2c(cc(C3CCC(C)(C)CC3)n2C)c(-c2cc(F)c3c(c2C)CCCO3)c1[C@H](OC(C)(C)C)C(=O)O` [Example 283] gave a pIC50 of 6.40. With `Cc1nc2c(cc(-c3nnc(-c4ccc5c(cnn5C)c4)s3)n2C)c(-c2cc(F)c3c(c2C)CCCO3)c1[C@H](OC(C)(C)C)C(=O)O` (atropisomer, axis not shown; (M)) [Example 356, (2S)(M)-2-(tert-butoxy)-2-(-4-(8-fluoro-5-methylchroman-6-yl)-1,6-dimethyl-2-(5-(1-methyl-1H-indazol-5-yl)-1,3,4-thiadiazol-2-yl)-1H-pyrrolo[2,3-b]pyridin-5-yl)acetic acid] the pIC50 was 8.01. `Cc1nc2c(cc(-c3ccnc(-c4ccc5cn(C)nc5c4)c3)n2C)c(-c2cc(F)c3c(c2C)CCCO3)c1[C@H](OC(C)(C)C)C(=O)O` (atropisomer, axis not shown) [Example 53] showed a pIC50 of 8.68. For `Cc1nc2c(cc(-c3ccnc(C(=O)NCCN4CCCC4=O)c3)n2C)c(-c2cc(F)c3c(c2C)CCCO3)c1[C@H](OC(C)(C)C)C(=O)O` (atropisomer, axis not shown) [Example 149], the pIC50 was 6.66. Compound `Cc1nc2c(cc(C(=O)N3CCC(c4c[nH]c5ccccc45)CC3)n2C)c(-c2cc(F)c3c(c2C)CCCO3)c1[C@H](OC(C)(C)C)C(=O)O` [Example 191] has a pIC50 of 8.31. `COC(C)(C)CCNC(=O)c1cc2c(-c3cc(F)c4c(c3C)CCCO4)c([C@H](OC(C)(C)C)C(=O)O)c(C)nc2n1C` [Example 279] gave a pIC50 of 8.00. With `COCC1CCCN1C1CCN(c2nnc(-c3cc4c(-c5cc(F)c6c(c5C)CCCO6)c([C@H](OC(C)(C)C)C(=O)O)c(C)nc4n3C)o2)CC1` (stereo partly drawn) [Example 339] the pIC50 was 7.54. For `Cc1nc2c(cc(C(=O)NCC(C)C)n2C)c(-c2cc(F)c3c(c2C)CCCO3)c1[C@H](OC(C)(C)C)C(=O)O` [Example 246], the pIC50 was 7.82. Work on `Cc1nc2c(cc(-c3nc(N4CCC(N5CCCCC5)CC4)ns3)n2C)c(-c2cc(F)c3c(c2C)CCCO3)c1[C@H](OC(C)(C)C)C(=O)O` [Example 387] yielded a pIC50 of 8.16. Compound `Cc1nc2c(cc(C(=O)N3CCC[C@H]3C(=O)N(C)c3ccc4c(cnn4C)c3)n2C)c(-c2cc(F)c3c(c2C)CCCO3)c1[C@H](OC(C)(C)C)C(=O)O` [Example 179] has a pIC50 of 6.07. `Cc1nc2c(cc(C(=O)NCc3c(Cl)cccc3Cl)n2C)c(-c2cc(F)c3c(c2C)CCCO3)c1[C@H](OC(C)(C)C)C(=O)O` [Example 253] gave a pIC50 of 8.72. `Cc1nc2c(cc(-c3ccnc(N4CCCN(C5COC5)CC4)c3)n2C)c(-c2cc(F)c3c(c2C)NCCO3)c1[C@H](OC(C)(C)C)C(=O)O` [Example 433] gave a pIC50 of 6.89. For `Cc1nc2c(cc(C(=O)N3CCc4ccccc43)n2C)c(-c2cc(F)c3c(c2C)CCCO3)c1[C@H](OC(C)(C)C)C(=O)O` [Example 183], the pIC50 was 7.47. Work on `Cc1nc2c(cc(-c3nnc(N4C[C@H](C)O[C@@H](C)C4)o3)n2C)c(-c2cc(F)c3c(c2C)CCCO3)c1[C@H](OC(C)(C)C)C(=O)O` [Example 351] yielded a pIC50 of 8.70. In the case of `Cc1nc2c(cc(-c3nnc(N4CCC(OC(C)C)CC4)o3)n2C)c(-c2cc(F)c3c(c2C)CCCO3)c1[C@H](OC(C)(C)C)C(=O)O` [Example 323], the pIC50 was 8.28. For `Cc1nc2c(cc(-c3nc(N4CCN(C5CC5)CC4)ns3)n2C)c(-c2cc(F)c3c(c2C)CCCO3)c1[C@H](OC(C)(C)C)C(=O)O` [Example 385], the pIC50 was 8.00. Work on `Cc1nc2c(cc(-c3ccnc(N4CCCN(C)CC4)c3)n2C)c(-c2cc(F)c3c(c2C)CCCO3)c1[C@H](OC(C)(C)C)C(=O)O` (atropisomer, axis not shown) [Example 94] yielded a pIC50 of 7.29. `Cc1nc2c(cc(C(=O)NCCN3CCCCC3)n2C)c(-c2cc(F)c3c(c2C)CCCO3)c1[C@H](OC(C)(C)C)C(=O)O` [Example 272] gave a pIC50 of 6.53. Compound `Cc1ccc(-c2cc(-c3cc4c(-c5cc(F)c6c(c5C)CCCO6)c([C@H](OC(C)(C)C)C(=O)O)c(C)nc4n3C)ccn2)cc1` (atropisomer, axis not shown) [Example 31] has a pIC50 of 7.96. In the case of `Cc1nc2c(cc(-c3ccnc(N4CC5CN(C6COC6)CC5C4)c3)n2C)c(-c2cc(F)c3c(c2C)CCCO3)c1[C@H](OC(C)(C)C)C(=O)O` (stereo partly drawn) [Example 121], the pIC50 was 7.82. Compound `Cc1nc2c(cc(-c3nc(N4CCN(C(=O)C5CCOCC5)CC4)ns3)n2C)c(-c2cc(F)c3c(c2C)CCCO3)c1[C@H](OC(C)(C)C)C(=O)O` [Example 391] has a pIC50 of 7.85. Work on `Cc1nc2c(cc(C(=O)N3CCN(C4CCOCC4)C[C@H]3C)n2C)c(-c2cc(F)c3c(c2C)CCCO3)c1[C@H](OC(C)(C)C)C(=O)O` [Example 223] yielded a pIC50 of 6.92. Work on `Cc1nc2c(cc(-c3nc(N4CCN(S(=O)(=O)N5CCCCC5)CC4)ns3)n2C)c(-c2cc(F)c3c(c2C)CCCO3)c1[C@H](OC(C)(C)C)C(=O)O` [Example 394] yielded a pIC50 of 7.79. Compound `Cc1nc2c(cc(-c3ccnc(N4CCCN(C5COC5)CC4)c3)n2C)c(-c2ccc3c(c2C)NCCO3)c1[C@H](OC(C)(C)C)C(=O)O` [Example 434] has a pIC50 of 7.29. `CCN(CC)C(=O)C1CCCN(C(=O)c2cc3c(-c4cc(F)c5c(c4C)CCCO5)c([C@H](OC(C)(C)C)C(=O)O)c(C)nc3n2C)C1` (stereo partly drawn) [Example 207] gave a pIC50 of 6.51. Work on `Cc1nc2c(cc(C(=O)N3CCN(C(C)C)CC3)n2C)c(-c2cc(F)c3c(c2C)CCCO3)c1[C@H](OC(C)(C)C)C(=O)O` [Example 277] yielded a pIC50 of 7.00. Work on `Cc1nc2c(cc(CCC(=O)N(C)c3ccc4c(cnn4C)c3)n2C)c(-c2cc(F)c3c(c2C)CCCO3)c1[C@H](OC(C)(C)C)C(=O)O` [Example 299] yielded a pIC50 of 7.41. In the case of `Cc1nc2c(cc(C(=O)N3CCN(C)CC3)n2C)c(-c2cc(F)c3c(c2C)CCCO3)c1[C@H](OC(C)(C)C)C(=O)O` [Example 173], the pIC50 was 6.45. `Cc1nc2c(cc(C(=O)NCCC(F)(F)F)n2C)c(-c2cc(F)c3c(c2C)CCCO3)c1[C@H](OC(C)(C)C)C(=O)O` [Example 245] showed a pIC50 of 7.65. `CCO[C@H](C(=O)O)c1c(C)nc2c(cc(-c3ccnc(-c4ccc5c(cnn5C)c4)c3)n2C)c1-c1cc(F)c2c(c1C)CCCO2` [Example 438] gave a pIC50 of 8.31. In the case of `Cc1nc2c(cc(-c3ccnc(N4CCN(c5ncccn5)CC4)c3)n2C)c(-c2cc(F)c3c(c2C)CCCO3)c1[C@H](OC(C)(C)C)C(=O)O` (atropisomer, axis not shown) [Example 93], the pIC50 was 7.62. For `Cc1nc2c(cc(C(=O)N3CCN4CCCC4C3)n2C)c(-c2cc(F)c3c(c2C)CCCO3)c1[C@H](OC(C)(C)C)C(=O)O` (stereo partly drawn) [Example 182], the pIC50 was 6.88. In the case of `Cc1nc2c(cc(C(=O)NC(C)(C)c3ccccc3)n2C)c(-c2cc(F)c3c(c2C)CCCO3)c1[C@H](OC(C)(C)C)C(=O)O` [Example 195], the pIC50 was 7.59. In the case of `Cc1nc2c(cc(-c3ccnc(-c4cnc(N(C)C)nc4)c3)n2C)c(-c2cc(F)c3c(c2C)CCCO3)c1[C@H](OC(C)(C)C)C(=O)O` (atropisomer, axis not shown) [Example 33], the pIC50 was 8.14. Compound `Cc1nc2c(cc(-c3nnc(N4CCC(N5CCCCC5)CC4)o3)n2C)c(-c2cc(F)c3c(c2C)CCCO3)c1[C@H](OC(C)(C)C)C(=O)O` [Example 317] has a pIC50 of 6.93. `CCO[C@H](C(=O)O)c1c(C)nc2c(cc(-c3nnc(-c4ccc5c(cnn5C)c4)o3)n2C)c1-c1cc(F)c2c(c1C)CCCO2` [Example 439] was tested, and the pIC50 was 8.52. Compound `COc1ccccc1[C@H]1[C@@H]2CN(c3cc(-c4cc5c(-c6cc(F)c7c(c6C)CCCO7)c([C@H](OC(C)(C)C)C(=O)O)c(C)nc5n4C)ccn3)C[C@@H]21` (atropisomer, axis not shown) [Example 109] has a pIC50 of 6.92. In the case of `Cc1nc2c(cc(C(=O)NCCC3CCCCC3)n2C)c(-c2cc(F)c3c(c2C)CCCO3)c1[C@H](OC(C)(C)C)C(=O)O` [Example 259], the pIC50 was 8.72. `Cc1nc2c(cc(-c3nc(N4CCN5CCC[C@@H]5C4)ns3)n2C)c(-c2cc(F)c3c(c2C)CCCO3)c1[C@H](OC(C)(C)C)C(=O)O` [Example 381] gave a pIC50 of 8.57. `Cc1nc2c(cc(C(=O)N3CCN(S(C)(=O)=O)CC3)n2C)c(-c2cc(F)c3c(c2C)CCCO3)c1[C@H](OC(C)(C)C)C(=O)O` [Example 180] was tested, and the pIC50 was 5.72. In the case of `Cc1nc2c(cc(C(=O)NCCCN(C)C)n2C)c(-c2cc(F)c3c(c2C)CCCO3)c1[C@H](OC(C)(C)C)C(=O)O` [Example 247], the pIC50 was 4.74. `Cc1nc2c(cc(C(=O)NCC3CCC3)n2C)c(-c2cc(F)c3c(c2C)CCCO3)c1[C@H](OC(C)(C)C)C(=O)O` [Example 276] was tested, and the pIC50 was 8.00. `Cc1nc2c(cc(/C=C/C(=O)NCCC(C)(C)C)n2C)c(-c2cc(F)c3c(c2C)CCCO3)c1[C@H](OC(C)(C)C)C(=O)O` [Example 416] was tested, and the pIC50 was 7.57. Work on `Cc1nc2c(cc(-c3nnc(N4CCN(C5CCOCC5)[C@@H](C)C4)o3)n2C)c(-c2cc(F)c3c(c2C)CCCO3)c1[C@H](OC(C)(C)C)C(=O)O` [Example 335] yielded a pIC50 of 8.00. `COCCN(CCOC)C(=O)c1cc2c(-c3cc(F)c4c(c3C)CCCO4)c([C@H](OC(C)(C)C)C(=O)O)c(C)nc2n1C` [Example 269] showed a pIC50 of 7.09. With `Cc1nc2c(cc(-c3ccnc(-c4ccc5cnn(C)c5c4)c3)n2C)c(-c2cc(F)c3c(c2C)CCCO3)c1[C@H](OC(C)(C)C)C(=O)O` (atropisomer, axis not shown) [Example 41] the pIC50 was 8.34. Work on `Cc1nc2c(cc(C(=O)N[C@H](C)c3ccccc3)n2C)c(-c2cc(F)c3c(c2C)CCCO3)c1[C@H](OC(C)(C)C)C(=O)O` [Example 190] yielded a pIC50 of 7.85. `Cc1nc2c(cc(-c3ccnc(C#CC4(O)CCCCC4)c3)n2C)c(-c2cc(F)c3c(c2C)CCCO3)c1[C@H](OC(C)(C)C)C(=O)O` (atropisomer, axis not shown) [Example 159] showed a pIC50 of 7.55. Compound `Cc1nc2c(cc(-c3nc(N4CCCN(C)CC4)ns3)n2C)c(-c2cc(F)c3c(c2C)CCCO3)c1[C@H](OC(C)(C)C)C(=O)O` [Example 398] has a pIC50 of 7.87. Compound `Cc1nc2c(cc(-c3nnc(N4CCN(C(C)C)CC4)o3)n2C)c(-c2cc(F)c3c(c2C)CCCO3)c1[C@H](OC(C)(C)C)C(=O)O` [Example 342] has a pIC50 of 8.27. For `Cc1nc2c(cc(-c3ccnc(CNc4ccccn4)c3)n2C)c(-c2cc(F)c3c(c2C)CCCO3)c1[C@H](OC(C)(C)C)C(=O)O` [Example 76], the pIC50 was 6.95.
